# From patent US20050214310A1 (priority 2004, published 2005)
# Read-outs that look alike come from different tables or passages of the source.
# Test system: H3677 melanoma cell line
# Experiment: cells
# Type: cell-based
# [1] = read-out: IC50 (μM) with L49-βL
compound,measurement,setting,value
"N[C@@H](Cc1ccc(N(CCCl)CCCl)cc1)C(=O)O [melphalan, 4[bis(2 chloroethyl)amino]-L-phynelalanine, reference compound]",IC50,"Homo sapiens, H3677",2.8 µM
C-Mel Cyclobutyl Ester,IC50,read-out: IC50 (μM) with βL,0.8 µM
same,IC50,read-out: IC50 (μM) without βL,10 µM
C-Mel Cyclohexyl Ester,IC50,[1],0.23 µM
same,IC50,read-out: IC50 (μM) with βL,0.083 µM
same,IC50,read-out: IC50 (μM) without βL,1.6 µM
C-Mel Methyl Ester,IC50,read-out: IC50 (μM) with βL,0.0018 µM
same,IC50,read-out: IC50 (μM) without βL,0.65 µM
C-Mel t-Butyl Ester,IC50,read-out: IC50 (μM) with βL,2.1 µM
same,IC50,read-out: IC50 (μM) without βL,32.3 µM
Glutaryl C-Mel,IC50,[1],2.4 µM
same,IC50,read-out: IC50 (μM) with βL,1.4 µM
same,IC50,read-out: IC50 (μM) without βL,26.3 µM
Glutaryl C-Mel Cyclohexyl Ester,IC50,[1],0.14 µM
same,IC50,read-out: IC50 (μM) with βL,0.087 µM
same,IC50,read-out: IC50 (μM) without βL,1.86 µM
Glutaryl C-Mel-D-Phe-NH2,IC50,read-out: IC50 (μM) with βL,2.1 µM
same,IC50,read-out: IC50 (μM) without βL,30 µM
Glutaryl C-Mel-L-Phe-NH2,IC50,read-out: IC50 (μM) with βL,0.05 µM
same,IC50,read-out: IC50 (μM) without βL,3.6 µM
Mel-D-Glu(OMe)2 [Mel-D-Glu bis methyl ester],IC50,read-out: IC50,3.95 µM
Mel-Gly-nitrophenyl amide,IC50,read-out: IC50,1.01 µM
Mel-L-Glu(OMe)2 [Mel-L-Glu bis methyl ester],IC50,read-out: IC50,1.89 µM
Mel-L-Met amide,IC50,read-out: IC50,0.4 µM
Mel-L-Phe cyclohexyl amide,IC50,read-out: IC50,0.015 µM
Mel-L-homoPhe-NH2,IC50,read-out: IC50,0.09 µM
Mel-cyclohexyl amide,IC50,read-out: IC50,1.57 µM
Mel-phenethyl amide,IC50,read-out: IC50,0.97 µM
Mel-propargylalanine-NH2,IC50,read-out: IC50,0.31 µM
Melphalan (2-trifluoromethyl)phenethyl ester,IC50,read-out: IC50,3 µM
Melphalan (4-cis-t-butyl) cyclohexyl ester [melphalan cis-4-t-butylcyclohexyl ester],IC50,read-out: IC50,13 µM
Melphalan (4-n-propyl)phenethyl ester [melphalan (4-butyl)phenethyl ester],IC50,read-out: IC50,4.6 µM
Melphalan (4-trans-t-butyl) cyclohexyl ester,IC50,read-out: IC50,3.6 µM
Melphalan Cyclobutyl Ester,IC50,read-out: IC50,0.2 µM
Melphalan Cyclohexyl Ester,IC50,read-out: IC50,0.074 µM
Melphalan Cyclooctyl Ester,IC50,read-out: IC50,5 µM
Melphalan Methyl Ester,IC50,read-out: IC50,0.054 µM
Melphalan Phenethyl Ester,IC50,read-out: IC50,0.17 µM
Melphalan t-Butyl Ester,IC50,read-out: IC50,3.34 µM
glutaryl C-Mel t-butyl ester,IC50,read-out: IC50 (μM) with βL,2.3 µM
same,IC50,read-out: IC50 (μM) without βL,25 µM
melphalan amide,IC50,read-out: IC50,0.64 µM
melphalan anilide,IC50,read-out: IC50,1.2 µM
